Assay results reported in patent US9051325B2, “Bicyclic [5,6] imidazo pyrimodone compounds for use in the treatment of diseases or conditions mediated by Lp-PLA2” (GlaxoSmithKline Intellectual Property Development Limited, priority 2013, dated 2015).

Legend:
[1] = target: T1, recombinant human Lp-PLA2 (Homo sapiens, UniProt Q13093); experiment: Recombinant human Lp-PLA2 assay (rhLp-PLA2, PED6 assay); type: biochemical; details: lower bounds; read-out: pIC50 values in the PED6 assay (converted)
T1 sequence (Q13093 22-441): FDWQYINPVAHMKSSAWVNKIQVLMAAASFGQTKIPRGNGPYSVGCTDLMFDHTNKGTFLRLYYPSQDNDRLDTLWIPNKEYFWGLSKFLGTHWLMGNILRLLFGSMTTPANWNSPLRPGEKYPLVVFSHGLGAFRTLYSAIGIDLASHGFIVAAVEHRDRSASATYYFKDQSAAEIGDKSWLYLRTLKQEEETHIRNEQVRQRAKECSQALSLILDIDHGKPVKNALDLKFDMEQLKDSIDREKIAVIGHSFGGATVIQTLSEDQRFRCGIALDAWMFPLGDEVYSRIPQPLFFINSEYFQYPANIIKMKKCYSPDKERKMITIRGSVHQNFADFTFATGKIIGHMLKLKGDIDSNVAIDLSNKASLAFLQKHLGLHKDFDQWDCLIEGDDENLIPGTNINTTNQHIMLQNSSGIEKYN
Excerpt: (1) Recombinant Human Lp-PLA2 Assay (rhLp-PLA2) (Also Referred to as “PED6” Assay)
N-((6-(2,4-dinitrophenyl)amino)-hexanoyl)-2-(4,4-difluoro-5,7-dimethyl-4-bora-3a,4a-diaza-s-indacene-3-pentanoyl)-1-hexadecanoyl-sn-glycero-3-phosphoethanolamine, triethylammonium salt (PED6) is a commercially available fluorescently-labeled phospholipid, which is commercially available from Invitrogene and Molecular Probes. There is a quenching […] and a Bodipy fluorescein (FL) group in the sn2 position. Upon cleavage with Lp-PLA2, the Bodipy FL group is liberated and then may result in an increase in fluorescence. Inhibitors of Lp-PLA2 therefore prevent this cleavage and no fluorescent increase is observed.
The PED6 assay was run as an unquenched 10 μL assay. The source plate containing the compounds to be tested was prepared by making 1:3 (by volume) serial dilution of the compounds within DMSO on 384-well microplate. Then, 0.01 μL of the compounds on compound source plate were transferred into 384 well Greiner 784076 (black) plates using ECHO liquid dispenser. 5 μL of recombinant human Lp-PLA2 enzyme (4 nM (or […]) rhLp-PLA2 in assay buffer of 50 mM HEPES, pH 7.4, 150 mM NaCl, 1 mM CHAPS) was added to each well of the plate. Plates were centrifuged for 10 sec at 500 rpm. After 30 minutes preincubation, 5 μL of substrate ([…] PED6 [from 5 mM DMSO stock] in assay buffer of 50 mM HEPES, pH 7.4, 150 mM NaCl, 1 mM CHAPS) was added to 384 well Greiner 784076 (black) plates. Plates were centrifuged for 10 sec at 500 rpm. The plate was covered to protect it from light and incubated for 20 min at room temperature. The plates were read for fluorescence intensity at ex: 480/em: 540 using ViewLux microplate imager for Envision spectrofluoroimeters pIC50 data, curve and QC analysis was conducted by using XL fit module in Excel.

[2] = target: T2, Lp-PLA2 in human plasma (Homo sapiens, UniProt Q13093); experiment: Lp-PLA2 human plasma assay (Thio-PAF assay); type: biochemical; details: pooled human plasma; lower bounds; read-out: pIC50 values in the thio-PAF assay (converted)
T2 construct: from tissue; host or cells: pooled human plasma
T2 sequence (Q13093 22-441): T1 sequence (Q13093 22-441)
Excerpt: (3) Lipoprotein-Associated Phospholipase A2 (Lp-PLA2) Human Plasma Assay (Also Referred to as “Thio-PAF assay”)
The human plasma assay utilizes a thioester analog of PAF (phosphatidylcholine), where hydrolysis yields to the formation of a phospholipid containing a free thiol group. The amount of thiol is quantitated continuously by reacting with CPM (7-diethylamino-3-(4′-maleimidylphenyl)-4-methylcoumarin), a maleimide which increases in fluoresence after Michael addition of thiols. This assay may detect the activity of Lp-PLA2 in human plasma, as determined by specific inhibition by Lp-PLA2 inhibitors.
The thio-PAF assay was run as a quenched 15 μL assay. Compounds source plate was prepared by making 1:3 (by volume) serial dilution of the compounds into pure DMSO on 384-well microplate. 0.01 μL of compounds on compound source plate were transferred to 384 well Greiner 784076 (black) low-volume plates by ECHO liquid dispenser. 8 μL pooled human plasma, which was previously aliquoted and frozen, was added. Plates were centrifuged for 10 sec at 500 rpm. After 30 minutes preincubation, 2 μL of substrate solution comprising 2.5 mM 2-thio-PAF [from ethanol stock], 32 μM CPM [from a DMSO stock] and 3.2 mM NEM (N-ethylmaleimide) [made fresh daily in DMSO] in assay buffer of 50 mM HEPES, pH 7.4, 150 mM NaCl, 1 mM CHAPS was added to 384 well Greiner 784076 (black) low-volume plates by BRAVO liquid handling station. After 2 mins, reaction was quenched with 5 μL of 5% aqueous trifluoroacetic acid (TFA). Plates were covered to protect from light and incubated for 40 min at room temperature. Plates were read at ex: 380/em: 485 using-Envision microplate reader. PIC50 data, curve and QC analysis were conducted by using XLFit module in Excel.

| SMILES | IC50 [1] [nM] | IC50 [2] [nM] |
| --- | --- | --- |
| C[C@H]1Cn2c(cc(OCc3ccc(Oc4ccc(C(F)(F)F)nc4)c(F)c3)nc2=O)N1C [Example E6, (S)-7-((3-fluoro-4-((6-(trifluoromethyl)pyridin-3-yl)oxy)benzyl)oxy)-1,2-dimethyl-2,3-dihydroimidazo[1,2-c]pyrimidin-5(1H)-one] | ≤ 1 | – |
| C[C@H]1Cn2c(cc(OCc3ccc(F)c(F)c3)nc2=O)N1 [Example E9, (S)-7-((3,4-difluorobenzyl)oxy)-2-methyl-2,3-dihydroimidazo[1,2-c]pyrimidin-5(1H)-one] | ≤ 10 | – |
| O=c1nc(OCc2ccc(Oc3ccc(Cl)c(C(F)(F)F)c3)cc2)cc2n1CCN2C1CC1 [Example E17, 7-((4-(4-chloro-3-(trifluoromethyl)phenoxy)benzyl)oxy)-1-cyclopropyl-2,3-dihydroimidazo[1,2-c]pyrimidin-5(1H)-one] | ≤ 10 | – |
| CN1c2cc(OCc3cccc(Cl)c3)nc(=O)n2CC1(C)C [Example E21, 7-((3-chlorobenzyl)oxy)-1,2,2-trimethyl-2,3-dihydroimidazo[1,2-c]pyrimidin-5(1H)-one] | ≤ 10 | – |
| [2H]C([2H])(Oc1cc2n(c(=O)n1)C[C@H](C)N2C)c1ccc(F)c(F)c1 [Example E22, (S)-7-(dideutero(3,4-difluorophenyl)methoxy)-1,2-dimethyl-2,3-dihydroimidazo[1,2-c]pyrimidin-5(1H)-one] | ≤ 10 | – |
| C[C@H]1Cn2c(cc(OCc3ccc(Oc4cncc(C#N)c4)c(F)c3)nc2=O)N1C [Example E24, (S)-5-(4-(((1,2-dimethyl-5-oxo-1,2,3,5-tetrahydroimidazo[1,2-c]pyrimidin-7-yl)ox-y)methyl)-2-fluorophenoxy)nicotinonitrile] | ≤ 10 | – |
| C[C@H]1Cn2c(cc(OCc3ccc(Oc4cccc(F)c4)c(F)c3)nc2=O)N1C [Example E27, (S)-7-((3-fluoro-4-(3-fluorophenoxy)benzyl)oxy)-1,2-dimethyl-2,3-dihydroimidazo-[1,2-c]pyrimidin-5(1H)-one] | ≤ 10 | – |
| C[C@H]1Cn2c(cc(OCc3ccc(Oc4cccc(F)c4)c(F)c3)nc2=O)N1 [Example E28, (S)-7-((3-fluoro-4-(3-fluorophenoxy)benzyl)oxy)-2-methyl-2,3-dihydroimidazo[1,2-c]pyrimidin-5(1H)-one] | ≤ 10 | – |
| C[C@@H]1Cn2c(cc(OCc3cccc(C#N)c3)nc2=O)N1C [Example E33, (R)-3-(((1,2-dimethyl-5-oxo-1,2,3,5-tetrahydroimidazo[1,2-c]pyrimidin-7-yl)oxy)methyl)benzonitrile] | – | ≤ 100 |
| CN1c2cc(OCc3ccc(Cl)c(F)c3)nc(=O)n2CC1(C)C [Example E36, 7-((4-chloro-3-fluorobenzyl)oxy)-1,2,2-trimethyl-2,3-dihydroimidazo[1,2-c]pyrimidin-5(1H)-one] | ≤ 10 | – |
| CN1c2cc(OCCC3CCCC3)nc(=O)n2CC1(C)C [Example E52, 7-(2-cyclopentylethoxy)-1,2,2-trimethyl-2,3-dihydroimidazo[1,2-c]pyrimidin-5(1H)-one] | – | ≤ 100 |
| C[C@H]1Cn2c(cc(OCc3ccc(Oc4ccc(F)cc4)c(C#N)c3)nc2=O)N1C [Example E57, (S)-5-(((1,2-dimethyl-5-oxo-1,2,3,5-tetrahydroimidazo[1,2-c]pyrimidin-7-yl)oxy)methyl)-2-(4-fluorophenoxy)benzonitrile] | ≤ 1 | – |
| C[C@H]1Cn2c(cc(OCc3ccc(Oc4ccc(C(F)(F)F)nc4)c(F)c3)nc2=O)N1 [Example E62, (S)-7-((3-fluoro-4-((6-(trifluoromethyl)pyridin-3-yl)oxy)benzyl)oxy)-2-methyl-2,3-dihydroimidazo[1,2-c]pyrimidin-5(1H)-one] | ≤ 1 | – |
| C[C@H]1Cn2c(cc(OCc3cccc(C#N)c3)nc2=O)N1C [Example E72, (S)-3-(((1,2-dimethyl-5-oxo-1,2,3,5-tetrahydroimidazo[1,2-c]pyrimidin-7-yl)oxy)methyl)benzonitrile] | – | ≤ 100 |
| C[C@H]1Cn2c(cc(OCc3cc(F)c(Oc4cccc(F)c4)c(F)c3)nc2=O)N1C [Example E76, (S)-7-((3,5-difluoro-4-(3-fluorophenoxy)benzyl)oxy)-1,2-dimethyl-2,3-dihydroimidazo[1,2-c]pyrimidin-5(1H)-one] | ≤ 1 | – |
| C[C@H]1Cn2c(cc(OCc3cc(F)cc(F)c3)nc2=O)N1 [Example E85, (S)-7-((3,5-difluorobenzyl)oxy)-2-methyl-2,3-dihydroimidazo[1,2-c]pyrimidin-5(1H)-one] | – | ≤ 100 |
| [2H]C([2H])(Oc1cc2n(c(=O)n1)C[C@H](C)N2C)c1cc(F)c(F)c(F)c1 [Example E86, (S)-7-(dideutero(3,4,5-trifluorophenyl)methoxy)-1,2-dimethyl-2,3-dihydroimidazo[1,2-c]pyrimidin-5(1H)-one] | ≤ 10 | – |
| CN1c2cc(OCc3cc(F)ccc3F)nc(=O)n2CC1(C)C [Example E92, 7-((2,5-difluorobenzyl)oxy)-1,2,2-trimethyl-2,3-dihydroimidazo[1,2-c]pyrimidin-5(1H)-one] | ≤ 10 | – |
| C[C@H]1Cn2c(cc(OCc3ccc(Oc4ccc(F)cc4)c(F)c3)nc2=O)N1C [Example E94, (S)-7-((3-fluoro-4-(4-fluorophenoxy)benzyl)oxy)-1,2-dimethyl-2,3-dihydroimidazo[1,2-c]pyrimidin-5(1H)-one] | ≤ 10 | – |
| C[C@H]1Cn2c(cc(OCc3cccc(C#N)c3)nc2=O)N1 [Example E109, (S)-3-(((2-methyl-5-oxo-1,2,3,5-tetrahydroimidazo[1,2-c]pyrimidin-7-yl)oxy)methyl)benzonitrile] | – | ≤ 100 |
| N#Cc1cc(COc2cc3n(c(=O)n2)CCN3C2CC2)ccc1Oc1ccc(F)c(F)c1 [Example E118, 5-(((1-cyclopropyl-5-oxo-1,2,3,5-tetrahydroimidazo[1,2-c]pyrimidin-7-yl)oxy)methyl)-2-(3,4-difluorophenoxy)benzonitrile] | ≤ 10 | – |
| CN1c2cc(OCc3cc(F)cc(Cl)c3)nc(=O)n2CC1(C)C [Example E125, 7-((3-chloro-5-fluorobenzyl)oxy)-1,2,2-trimethyl-2,3-dihydroimidazo[1,2-c]pyrimidin-5(1H)-one] | ≤ 10 | – |
| C[C@H]1Cn2c(cc(OCc3cc(F)c(Oc4ccc(F)c(F)c4)c(F)c3)nc2=O)N1C [Example E126, (S)-7-((4-(3,4-difluorophenoxy)-3,5-difluorobenzyl)oxy)-1,2-dimethyl-2,3-dihydroimidazo[1,2-c]pyrimidin-5(1H)-one] | ≤ 1 | – |
| C[C@H]1Cn2c(cc(OCc3ccc(Oc4ccc(F)cc4)c(F)c3)nc2=O)N1 [Example E130, (S)-7-((3-fluoro-4-(4-fluorophenoxy)benzyl)oxy)-2-methyl-2,3-dihydroimidazo[1,2c]pyrimidin-5(1H)-one] | ≤ 10 | – |
